Experimental data from the NIST ThermoML archive (doi:10.1021/acs.jced.5b00259).

Assay: xn = mol fraction of the nth substance listed
Conditions: 100 kPa, Liquid

CC[NH+]=C(N(C)C)N(C)C.O=S(=O)([N-]S(=O)(=O)C(F)(F)F)C(F)(F)F + CCCO
Conditions | mass density [kg/m3] | viscosity [mPa·s]
293.15 K, x1 = 0.1024 | 997.39 | 4.462
293.15 K, x1 = 0.2019 | 1114.71 | 7.27
293.15 K, x1 = 0.2973 | 1192.09 | 10.87
293.15 K, x1 = 0.4011 | 1252.75 | 16.1
293.15 K, x1 = 0.4988 | 1295.36 | 21.63
293.15 K, x1 = 0.5962 | 1328.36 | 28.19
293.15 K, x1 = 0.6997 | 1356.59 | 36.71
293.15 K, x1 = 0.7931 | 1377.81 | 45.87
293.15 K, x1 = 0.9014 | 1398.72 | 58.37
293.15 K, x1 = 1 | 1414.89 | 74.61
298.15 K, x1 = 0.1024 | 992.96 | 3.868
298.15 K, x1 = 0.2019 | 1110.07 | 6.213
298.15 K, x1 = 0.2973 | 1187.4 | 9.224
298.15 K, x1 = 0.4011 | 1247.97 | 13.49
298.15 K, x1 = 0.4988 | 1290.53 | 18.01
298.15 K, x1 = 0.5962 | 1323.53 | 23.23
298.15 K, x1 = 0.6997 | 1351.73 | 29.87
298.15 K, x1 = 0.7931 | 1372.97 | 37.15
298.15 K, x1 = 0.9014 | 1393.86 | 46.91
298.15 K, x1 = 1 | 1410.03 | 58.86
303.15 K, x1 = 0.1024 | 988.5 | 3.38
303.15 K, x1 = 0.2019 | 1105.48 | 5.362
303.15 K, x1 = 0.2973 | 1182.67 | 7.898
303.15 K, x1 = 0.4011 | 1243.16 | 11.48
303.15 K, x1 = 0.4988 | 1285.7 | 15.21
303.15 K, x1 = 0.5962 | 1318.7 | 19.43
303.15 K, x1 = 0.6997 | 1346.89 | 24.76
303.15 K, x1 = 0.7931 | 1368.14 | 30.48
303.15 K, x1 = 0.9014 | 1389.02 | 38.17
303.15 K, x1 = 1 | 1405.19 | 47.27
308.15 K, x1 = 0.1024 | 984.03 | 2.972
308.15 K, x1 = 0.2019 | 1100.81 | 4.667
308.15 K, x1 = 0.2973 | 1177.93 | 6.831
308.15 K, x1 = 0.4011 | 1238.35 | 9.85
308.15 K, x1 = 0.4988 | 1280.88 | 12.98
308.15 K, x1 = 0.5962 | 1313.87 | 16.47
308.15 K, x1 = 0.6997 | 1342.09 | 20.85
308.15 K, x1 = 0.7931 | 1363.32 | 25.37
308.15 K, x1 = 0.9014 | 1384.21 | 31.53
308.15 K, x1 = 1 | 1400.38 | 38.71
313.15 K, x1 = 0.1024 | 979.55 | 2.63
313.15 K, x1 = 0.2019 | 1096.13 | 4.093
313.15 K, x1 = 0.2973 | 1173.18 | 5.966
313.15 K, x1 = 0.4011 | 1233.59 | 8.525
313.15 K, x1 = 0.4988 | 1276.07 | 11.21
313.15 K, x1 = 0.5962 | 1309.06 | 14.12
313.15 K, x1 = 0.6997 | 1337.29 | 17.73
313.15 K, x1 = 0.7931 | 1358.51 | 21.42
313.15 K, x1 = 0.9014 | 1379.42 | 26.43
313.15 K, x1 = 1 | 1395.59 | 32.2
318.15 K, x1 = 0.1024 | 975.03 | 2.34
318.15 K, x1 = 0.2019 | 1091.46 | 3.684
318.15 K, x1 = 0.2973 | 1168.42 | 5.248
318.15 K, x1 = 0.4011 | 1228.78 | 7.433
318.15 K, x1 = 0.4988 | 1271.27 | 9.743
318.15 K, x1 = 0.5962 | 1304.24 | 12.24
318.15 K, x1 = 0.6997 | 1332.49 | 15.26
318.15 K, x1 = 0.7931 | 1353.72 | 18.28
318.15 K, x1 = 0.9014 | 1374.63 | 22.43
318.15 K, x1 = 1 | 1390.8 | 27.09
323.15 K, x1 = 0.1024 | 970.48 | 2.094
323.15 K, x1 = 0.2019 | 1086.71 | 3.283
323.15 K, x1 = 0.2973 | 1163.66 | 4.64
323.15 K, x1 = 0.4011 | 1223.97 | 6.437
323.15 K, x1 = 0.4988 | 1266.46 | 8.553
323.15 K, x1 = 0.5962 | 1299.4 | 10.7
323.15 K, x1 = 0.6997 | 1327.7 | 13.27
323.15 K, x1 = 0.7931 | 1348.94 | 15.77
323.15 K, x1 = 0.9014 | 1369.87 | 19.26
323.15 K, x1 = 1 | 1386.03 | 23.14
